From ChEMBL document CHEMBL1135328, “Structure-activity relationship of biaryl acylsulfonamide analogues on the human EP(3) prostanoid receptor” (Bioorg Med Chem Lett, 2002)

Assays:
[1] = molecular target: T1, Prostaglandin E2 receptor EP3 subtype (Homo sapiens, UniProt P43115); assay: Binding affinity at human Prostanoid EP3 receptor.
T1 sequence (P43115 whole entry): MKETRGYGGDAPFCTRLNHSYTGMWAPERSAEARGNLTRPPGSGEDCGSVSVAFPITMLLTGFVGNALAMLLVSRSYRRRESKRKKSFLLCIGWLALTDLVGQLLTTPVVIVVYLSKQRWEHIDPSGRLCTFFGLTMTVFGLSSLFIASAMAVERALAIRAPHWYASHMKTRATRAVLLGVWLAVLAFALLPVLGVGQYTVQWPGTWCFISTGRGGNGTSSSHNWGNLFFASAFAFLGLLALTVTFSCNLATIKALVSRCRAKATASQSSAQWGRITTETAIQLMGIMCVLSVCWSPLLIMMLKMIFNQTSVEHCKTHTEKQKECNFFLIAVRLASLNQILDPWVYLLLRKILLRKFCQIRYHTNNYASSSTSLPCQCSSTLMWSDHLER

[2] = molecular target: Prostaglandin E2 receptor EP2 subtype (Homo sapiens, UniProt P43116); assay: Binding affinity at human Prostanoid EP2 receptor.
[3] = molecular target: Prostaglandin E2 receptor EP4 subtype (Homo sapiens, UniProt P35408); assay: Binding affinity at human Prostanoid EP4 receptor.
[4] = molecular target: T2, Prostaglandin E2 receptor EP1 subtype (Homo sapiens, UniProt P34995); assay: Binding affinity at human Prostanoid EP1 receptor.
T2 sequence (P34995 whole entry): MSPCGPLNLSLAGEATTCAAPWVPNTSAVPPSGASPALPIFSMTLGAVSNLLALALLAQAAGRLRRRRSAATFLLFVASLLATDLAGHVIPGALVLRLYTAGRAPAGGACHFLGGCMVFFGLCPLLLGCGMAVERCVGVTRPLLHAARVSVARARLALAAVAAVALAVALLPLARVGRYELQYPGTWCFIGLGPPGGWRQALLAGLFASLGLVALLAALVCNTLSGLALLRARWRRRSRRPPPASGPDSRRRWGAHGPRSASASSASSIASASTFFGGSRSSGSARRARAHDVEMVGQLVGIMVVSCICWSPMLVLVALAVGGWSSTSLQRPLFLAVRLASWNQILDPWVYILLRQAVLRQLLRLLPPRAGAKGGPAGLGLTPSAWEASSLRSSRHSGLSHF

[5] = molecular target: Prostacyclin receptor (Homo sapiens, UniProt P43119); assay: Inhibitory constant against Prostanoid IP receptor
[6] = molecular target: Prostaglandin F2-alpha receptor (Homo sapiens, UniProt P43088); assay: Inhibitory constant against Prostanoid FP receptor
[7] = molecular target: T3, Prostaglandin D2 receptor (Homo sapiens, UniProt Q13258); assay: Inhibitory constant against Prostanoid DP receptor
T3 sequence (Q13258 whole entry): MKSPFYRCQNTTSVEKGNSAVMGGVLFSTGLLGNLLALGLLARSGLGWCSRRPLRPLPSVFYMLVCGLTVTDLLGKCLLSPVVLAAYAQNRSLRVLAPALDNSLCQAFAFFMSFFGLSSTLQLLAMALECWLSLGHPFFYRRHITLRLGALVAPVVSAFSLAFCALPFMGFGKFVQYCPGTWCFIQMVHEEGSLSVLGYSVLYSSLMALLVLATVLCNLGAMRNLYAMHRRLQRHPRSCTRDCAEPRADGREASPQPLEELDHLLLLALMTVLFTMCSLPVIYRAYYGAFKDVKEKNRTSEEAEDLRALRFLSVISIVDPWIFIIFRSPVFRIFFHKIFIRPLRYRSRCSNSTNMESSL

Chain of Prostaglandin E2 receptor EP4 subtype (P35408 whole entry): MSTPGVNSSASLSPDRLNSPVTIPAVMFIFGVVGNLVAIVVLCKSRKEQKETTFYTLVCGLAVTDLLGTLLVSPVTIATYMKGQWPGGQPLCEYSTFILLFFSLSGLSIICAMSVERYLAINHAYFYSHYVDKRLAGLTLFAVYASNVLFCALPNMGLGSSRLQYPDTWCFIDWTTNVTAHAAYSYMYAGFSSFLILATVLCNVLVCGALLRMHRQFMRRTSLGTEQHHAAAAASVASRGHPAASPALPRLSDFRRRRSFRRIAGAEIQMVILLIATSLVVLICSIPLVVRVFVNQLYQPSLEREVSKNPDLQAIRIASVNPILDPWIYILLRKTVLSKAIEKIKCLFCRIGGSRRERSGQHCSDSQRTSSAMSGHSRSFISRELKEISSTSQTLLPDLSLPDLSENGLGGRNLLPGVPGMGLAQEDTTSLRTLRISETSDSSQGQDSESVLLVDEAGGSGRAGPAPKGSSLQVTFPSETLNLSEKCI
Chain of Prostaglandin E2 receptor EP2 subtype (P43116 whole entry): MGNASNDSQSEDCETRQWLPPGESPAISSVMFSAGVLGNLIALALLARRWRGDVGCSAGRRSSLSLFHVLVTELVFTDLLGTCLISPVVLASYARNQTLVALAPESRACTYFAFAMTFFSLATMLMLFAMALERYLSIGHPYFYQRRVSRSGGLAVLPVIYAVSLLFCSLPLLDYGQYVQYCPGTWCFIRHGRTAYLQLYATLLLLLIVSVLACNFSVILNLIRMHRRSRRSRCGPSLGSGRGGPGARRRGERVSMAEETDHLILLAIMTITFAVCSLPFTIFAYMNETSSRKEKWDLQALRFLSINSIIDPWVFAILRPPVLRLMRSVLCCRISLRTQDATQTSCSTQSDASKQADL
Chain of Prostaglandin F2-alpha receptor (P43088 whole entry): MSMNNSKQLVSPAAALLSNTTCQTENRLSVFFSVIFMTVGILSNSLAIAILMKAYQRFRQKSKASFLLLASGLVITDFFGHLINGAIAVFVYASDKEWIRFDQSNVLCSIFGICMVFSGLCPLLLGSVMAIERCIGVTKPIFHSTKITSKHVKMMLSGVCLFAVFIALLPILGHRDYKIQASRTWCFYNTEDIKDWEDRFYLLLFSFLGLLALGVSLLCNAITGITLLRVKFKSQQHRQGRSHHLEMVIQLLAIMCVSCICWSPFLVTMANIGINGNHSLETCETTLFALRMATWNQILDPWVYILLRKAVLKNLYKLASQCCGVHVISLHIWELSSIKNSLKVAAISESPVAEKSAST
Chain of Prostacyclin receptor (P43119 whole entry): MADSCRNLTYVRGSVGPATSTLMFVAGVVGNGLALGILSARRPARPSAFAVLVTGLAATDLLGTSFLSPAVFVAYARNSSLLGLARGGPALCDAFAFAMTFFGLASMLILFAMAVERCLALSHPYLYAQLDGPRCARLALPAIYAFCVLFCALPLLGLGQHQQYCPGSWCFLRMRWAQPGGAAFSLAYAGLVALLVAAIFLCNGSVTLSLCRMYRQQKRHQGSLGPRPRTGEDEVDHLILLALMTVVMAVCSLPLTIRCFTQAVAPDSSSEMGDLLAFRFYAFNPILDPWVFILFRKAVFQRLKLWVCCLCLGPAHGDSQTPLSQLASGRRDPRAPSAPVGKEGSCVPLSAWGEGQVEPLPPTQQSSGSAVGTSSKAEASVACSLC

| Ki [1] | Ki [2] | Ki [3] | Ki [4] | Ki [5] | Ki [6] | Ki [7] | Structure (SMILES) |
| --- | --- | --- | --- | --- | --- | --- | --- |
| 1000 nM | 63 nM | 2600 nM | 4900 nM | – | – | – | c1ccc(CCSCc2ccc(-c3ccccc3CCc3nnn[nH]3)cc2)cc1 |
| 610 nM | 3000 nM | 1100 nM | 7500 nM | – | – | – | O=S(=O)(CCc1ccccc1-c1ccc(CSCCc2ccccc2)cc1)NS(=O)(=O)c1cccs1 |
| 480 nM | 2500 nM | 690 nM | 2800 nM | – | – | – | O=C(NS(=O)(=O)CCc1ccccc1-c1ccc(CSCCc2ccccc2)cc1)c1cccs1 |
| 340 nM | 2900 nM | 1100 nM | 5800 nM | – | – | – | Cc1cccc(OCCCOc2ccc(-c3ccccc3CC(C)C(=O)NS(=O)(=O)c3cccs3)cc2)c1 (configuration not stated) |
| 110 nM | 70000 nM | 28000 nM | 41000 nM | – | – | – | O=C(/C=C/c1ccccc1-c1cccc(/C=C/c2ccc3ccc(Cl)cc3n2)c1)NS(=O)(=O)c1cccs1 |
| 7000 nM | > 10000 nM | 46 nM | > 10000 nM | – | – | – | CCCCc1nn(-c2ccccc2C(F)(F)F)c(=O)n1Cc1ccc(-c2ccccc2S(=O)(=O)NC(=O)c2cccs2)cc1 |
| 240 nM | 31000 nM | 25000 nM | 27000 nM | – | – | – | CSc1cccc(-c2ccccc2CCC(=O)NS(=O)(=O)c2cccs2)c1 |
| 510 nM | 3800 nM | 1500 nM | 83 nM | – | – | – | O=C(CCc1ccccc1-c1ccccc1CSCCc1ccccc1)NS(=O)(=O)c1cccs1 |
| 200 nM | 1800 nM | 700 nM | 3000 nM | – | – | – | O=C(CCCc1ccccc1-c1ccc(CSCCc2ccccc2)cc1)NS(=O)(=O)c1cccs1 |
| 120 nM | 16000 nM | 19000 nM | 49000 nM | – | – | – | O=C(CCc1ccccc1-c1cccc(/C=C/c2ccc3ccc(Cl)cc3n2)c1)NS(=O)(=O)c1cccs1 |
| 46 nM | 2700 nM | 1100 nM | 1700 nM | – | – | – | O=C(CCc1ccccc1-c1ccc(CSCCc2ccccc2)cc1)NS(=O)(=O)c1cccs1 |
| 740 nM | 140 nM | 4400 nM | 8600 nM | – | – | – | O=C(O)CCc1ccccc1-c1ccc(CSCCc2ccccc2)cc1 |
| 5900 nM | > 100000 nM | > 100000 nM | > 100000 nM | – | – | – | CS(=O)(=O)c1cccc(-c2ccccc2CCC(=O)NS(=O)(=O)c2cccs2)c1 |
| 330 nM | 590 nM | 850 nM | 3700 nM | – | – | – | O=C(Cc1ccccc1-c1ccc(CSCCc2ccccc2)cc1)NS(=O)(=O)c1cccs1 |
| 27 nM | 2000 nM | 1000 nM | 820 nM | – | – | – | O=C(CCc1ccccc1-c1cccc(CSCCc2ccccc2)c1)NS(=O)(=O)c1cccs1 |
| 53 nM | 2900 nM | 1600 nM | 4600 nM | – | – | – | Cc1cccc(OCCCOc2ccc(-c3ccccc3CCC(=O)NS(=O)(=O)c3cccs3)cc2)c1 |
| 16 nM | 4900 nM | 7100 nM | 13000 nM | – | – | – | O=C(CCc1ccccc1-c1ccc(OCCCOc2cccc(CSCCc3ccccc3)c2)cc1)NS(=O)(=O)c1cccs1 |
| 25 nM | 27000 nM | 3700 nM | 8200 nM | 7300 nM | 17000 nM | 830 nM | O=C(/C=C/c1ccccc1-c1ccc(Cl)c(Cl)c1)NS(=O)(=O)c1cccs1 |
| 150 nM | 8600 nM | 2900 nM | 15000 nM | – | – | – | Cc1cccc(OCCCOc2ccc(-c3ccccc3CNC(=O)NS(=O)(=O)c3cccs3)cc2)c1 |
| 120 nM | 2100 nM | 730 nM | 2800 nM | – | – | – | Cc1cccc(OCCCOc2ccc(-c3ccccc3COC(=O)NS(=O)(=O)c3cccs3)cc2)c1 |
| 440 nM | 2900 nM | 1000 nM | 1800 nM | – | – | – | Cc1cccc(OCCCOc2ccc(-c3ccccc3CC(C)(C)C(=O)NS(=O)(=O)c3cccs3)cc2)c1 |
